Data on 9 molecules can be found in patent US20220387602A1, “BIFUNCTIONAL DEGRADERS AND THEIR METHODS OF USE” (NOVARTIS AG, priority 2019, published 2022).

Some results are limits rather than exact numbers.

Experiment [1] has as its target CRBN (Homo sapiens, UniProt Q96SW2). The experiment is described as follows: CRBN displacement assay Format 1 (fluorescence polarization, BodipyFL-lenalidomide probe Compound HH). The class given is binding. How it is done:
Compounds were tested in the following biochemical and cellular assays.
BodipyFL conjugated lenalidomide compound HH was used as a fluorescent probe. […] Protein and substrate were diluted in assay buffer.
All protein and probe containing solutions were handled in ‘Maxymum Recovery’ tubes (Axygen Scientific Inc., Union City, USA). […] For the plate measurements a PHERAstar reader (BMG Labtech, Offenburg, Germany) was used. The instrument was equipped with a specific optics module containing filters and dichoic mirrors for measuring the fluorescence polarization-type assay. With this module, the fluorescence of the Bodipy FL-based probe was excited at 485 nm and the emissions of the product were measured at 520 nm. The fluorescence in each well was excited by 10 flashes per measurement.
For the determination of AC50 values, the assays were performed at room temperature in 384-well plates with a total assay volume of 10.1 μL per well. The test compound was dissolved in 90% (v/v) DMSO/water. For the assays, 100 nL of the 90% (v/v) DMSO/water solution or compound solution were added per well, followed by the addition of 5 μL protein solution (protein in 1× assay buffer).
The final assay concentration of the protein was nominally 100 nM. After 45 minutes of pre-incubation at room temperature, the competition for binding was started by the addition of 5 μL probe solution (probe dissolved in assay buffer). The final concentration of the probes in the assays was 5 nM. After the addition of the probe solution, the final DMSO concentration in the assay was 0.9% (v/v). The effect of the probe on the pre-established compound-protein complex equilibrium was determined after 45 minutes (t=45 min). The AC50 value was calculated from the plot of percentage of protein saturation versus the test compound concentration by a logistics fit according to: y=A^2+(A^1−A^2)/(1+(x/AC50)^p), where y is the %-saturation value at the test compound concentration, x. A^1 is the lowest saturation value, i.e., 0%, and A^2 the maximum saturation value, i.e. 100%. The exponent, p, is the Hill coefficient.

In experiment [2] the target is T1, BTK (Homo sapiens, UniProt Q06187).
T1 construct: the BTK open reading frame (ORF) was first shuttled from a pcDNA-DEST40-BTK vector; expressed in transfected cells; host or cells: HEK293A (Invitrogen R70507), lentiviral transduction, blasticidin selection
As to the kind of experiment: BTK-GFP protein abundance flow cytometry assay in HEK293A. The class given is cell-based. The note with it: 24 h; for BTK degradation Amax: % protein remaining at the concentration at which maximum degradation is seen, HEK293A; for DC50: concentration at which 50% maximal degradation was observed, HEK293A BTK-GFP sensor cells. The procedure: Degradation of BTK, CSK, ABL2, EPHA4 and YES1 was measured in HEK293A cells (Invitrogen R70507) expressing either BTK-GFP and RFP, CSK-GFP and mCherry, GFP-ABL2 and mCherry, EPHA4-GFP and mCherry, or YES1-GFP and mCherry from a stably integrated bicistronic BTK-GFP-iresRFP, CSK-GFP-CHYSEL-mCherry, GFP-ABL2-CHYSEL-mCherry, EPHA4-GFP-CHYSEL-mCherry, or YES1-GFP-CHYSEL-mCherry construct, respectively. Reduction of the GFP signal measured by flow cytometry served as readout for BTK, CSK, ABL2, EPHA4 and YES1 degradation after degrader treatment.
The mix was incubated for another 20 min at RT and then added on 1 mL of a freshly prepared suspension of HEK293FT cells in a well of a 6-well plate (concentration 1.2×10^6 cells/mL). 1 day after transfection, the medium was replaced with 1.5 mL of complete growth medium (DMEM high Glucose+10% FCS+1% L-Glutamine+1% NEAA+1% NaPyr.). 48 h post transfection supernatant containing viral transducing particles was collected and frozen at −80° C.
Infection was performed with 90 μL of collected supernatant containing viral transducing particles in 1 mL medium including 8 µg/mL polybrene. 24 h post infection, stably transfected cells were selected with blasticidin at a concentration of 8 μg/mL referred to as stable HEK293A sensor cells.
Stable HEK293A sensor cells were maintained in complete growth medium (DMEM high Glucose+10% FCS+1% L-Glutamine+1% NEAA+1% NaPyr.) with passaging performed twice per week. On Day 0, stable HEK293A sensor cells were seeded at 10,000 cells/well in a 96-well microtiter plate in 260 μL complete medium. On Day 1, cells were treated in duplicate with 10-point 1:3 dilution series of compound using the HP D300 Digital Dispenser (Tecan). DMSO concentrations were normalized across the plate to 0.1%. On Day 2, after 24 h of incubation at 37° C., treatment media was discarded, cells rinsed with 100 μL/well PBS and then detached using 40 μL trypsin/well for 5 min. Trypsin was neutralized with 100 μL/well PBS+20% FCS). Flow cytometry was performed on the samples using the BD FACS CANTO II (Becton Dickinson). Cell identification was then performed using forward (FSC) vs. side scatter (SSC) plots. Single cell discrimination is performed using SSC-Width (SSC-W) vs. SSC-Height (SSC-H) plots. Median GFP values for 5,000 single cells are used to determine BTK levels. Median GFP values from HEK293 Å-iresRFP are used as a background signal and thus defining 0% BTK signal. Median GFP values from DMSO treated HEK293 Å-BTK-GFP-iresRFP are used to define 100% BTK signal for subsequent DC50 curves (concentration at 50% BTK degradation). GFP and RFP are read in the channels called FITC and PE, respectively.
Concentration response curves plotting relative reduction of the GFP signal (measured by flow cytometry) versus 10 compound concentrations (starting concentration 10 μM, 3 fold dilution steps) of the compounds allowed generation of DC50 values. Protein abundance measured for the second generation vectors having a chysel was done in close analogy to the above described method for measuring BTK abundance.
Table 5 columns are defined as follows: DC50 refers to the concentration at which 50% maximal degradation was observed; deg Amax is the extent of degradation and the value refers to the % protein remaining at the concentration at which maximum degradation is seen.

CRBN, sequence (Q96SW2 whole entry): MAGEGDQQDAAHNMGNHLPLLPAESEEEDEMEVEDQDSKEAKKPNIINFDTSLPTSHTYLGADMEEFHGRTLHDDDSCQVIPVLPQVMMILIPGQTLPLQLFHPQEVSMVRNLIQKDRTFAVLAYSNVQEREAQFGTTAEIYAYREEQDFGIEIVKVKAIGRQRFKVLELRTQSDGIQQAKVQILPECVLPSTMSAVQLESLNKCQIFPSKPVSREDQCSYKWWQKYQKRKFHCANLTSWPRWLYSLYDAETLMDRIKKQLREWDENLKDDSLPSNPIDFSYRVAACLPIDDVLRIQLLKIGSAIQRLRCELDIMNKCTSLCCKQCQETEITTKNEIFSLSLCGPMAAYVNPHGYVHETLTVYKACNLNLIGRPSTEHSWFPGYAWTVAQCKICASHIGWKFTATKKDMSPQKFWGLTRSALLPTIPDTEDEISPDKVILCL
T1 sequence (Q06187 whole entry): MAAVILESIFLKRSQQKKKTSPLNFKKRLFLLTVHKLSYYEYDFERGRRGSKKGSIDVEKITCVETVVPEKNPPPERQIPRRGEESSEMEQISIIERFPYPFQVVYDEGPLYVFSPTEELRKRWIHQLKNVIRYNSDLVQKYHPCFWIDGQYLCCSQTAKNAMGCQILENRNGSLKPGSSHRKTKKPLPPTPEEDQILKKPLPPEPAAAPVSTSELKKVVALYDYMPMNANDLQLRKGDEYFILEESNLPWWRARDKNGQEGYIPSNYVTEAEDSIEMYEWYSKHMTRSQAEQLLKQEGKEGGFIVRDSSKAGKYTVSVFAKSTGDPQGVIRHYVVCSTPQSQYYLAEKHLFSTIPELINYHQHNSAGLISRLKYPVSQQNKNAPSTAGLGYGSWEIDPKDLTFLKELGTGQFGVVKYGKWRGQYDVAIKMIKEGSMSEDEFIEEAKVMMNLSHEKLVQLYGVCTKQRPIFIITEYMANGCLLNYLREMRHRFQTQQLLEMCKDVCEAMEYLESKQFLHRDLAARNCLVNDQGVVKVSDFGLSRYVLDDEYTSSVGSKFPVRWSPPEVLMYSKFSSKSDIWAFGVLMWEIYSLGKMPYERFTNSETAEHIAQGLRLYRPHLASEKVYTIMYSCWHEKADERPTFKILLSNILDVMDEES

For the molecule `Cc1ccc(OCC(=O)N2CCN(CCOc3ccc(-c4cc5c(-c6cc(F)cc(NC(=O)c7ccc(C(C)(C)O)cc7F)c6C)ncnc5[nH]4)cc3)CC2)cc1N1CCC(=O)NC1=O` [Compound 10, N-(3-(6-(4-(2-(4-(2-(3-(2,4-Dioxotetrahydropyrimidin-1(2H)-yl)-4-methylphenoxy)acetyl)piperazin-1-yl)ethoxy)phenyl)-7H-pyrrolo[2,3-d]pyrimidin-4-yl)-5-fluoro-2-methylphenyl)-2-fluoro-4-(2-hydroxypropan-2-yl)benzamide], half-maximal activity in experiment [1] (AC50) was put at 466 nM. For the same molecule, in experiment [2], the “BTK degradation Amax” value stood at 3.1% and half-maximal degradation (DC50) was put at 3.3 nM.

In experiment [1], `Cc1c(NC(=O)c2ccc(C(C)(C)O)cc2F)cc(F)cc1-c1ncnc2[nH]c(-c3ccc(CNCCCCOCCn4cccc(CN5CCC(=O)NC5=O)c4=O)cc3)cc12` [Compound 34, N-(3-(6-(4-(((4-(2-(3-((2,4-dioxotetrahydropyrimidin-1(2H)-yl)methyl)-2-oxopyridin-1(2H)-yl)ethoxy)butyl)amino)methyl)phenyl)-7H-pyrrolo[2,3-d]pyrimidin-4-yl)-5-fluoro-2-methylphenyl)-2-fluoro-4-(2-hydroxypropan-2-yl)benzamide] had a half-maximal activity concentration (AC50) of 736 nM. Besides, in experiment [2], the “BTK degradation Amax” value worked out at 40.3% and the DC50 amounted to 642 nM.

The molecule `COc1cc(C(=O)NCCCCN2CCN(Cc3ccc(-c4cc5c(-c6cc(F)cc(NC(=O)c7ccc(C(C)(C)O)cc7F)c6C)ncnc5[nH]4)cc3)CC2)ccc1N1CCC(=O)NC1=O` [Compound 25, N-(3-(6-(4-((4-(4-(4-(2,4-dioxotetrahydropyrimidin-1(2H)-yl)-3-methoxybenzamido)butyl)piperazin-1-yl)methyl)phenyl)-7H-pyrrolo[2,3-d]pyrimidin-4-yl)-5-fluoro-2-methylphenyl)-2-fluoro-4-(2-hydroxypropan-2-yl)benzamide] registered a concentration at half-maximal activity (AC50) in experiment [1] of 4470 nM. Moreover, in experiment [2], the “BTK degradation Amax” value is listed as 51.1% and the 50% degradation concentration (DC50) is over 3330 nM.

In experiment [1], `Cc1c(NC(=O)c2ccc(C(C)(C)O)cc2F)cc(F)cc1-c1ncnc2[nH]c(-c3ccc(CNCCCCCCOc4cccc(N5CCC(=O)NC5=O)c4)cc3)cc12` [Compound 14, N-(3-(6-(4-(((6-(3-(2,4-Dioxotetrahydropyrimidin-1(2H)-yl)phenoxy)hexyl)amino)methyl)phenyl)-7H-pyrrolo[2,3-d]pyrimidin-4-yl)-5-fluoro-2-methylphenyl)-2-fluoro-4-(2-hydroxypropan-2-yl)benzamide] registered an AC50 of 504 nM. Besides, in experiment [2], the “BTK degradation Amax” value came out at 25.9% and the DC50 worked out at 25.9 nM.

Turning to `Cc1ncc(C(=O)NCCCCCN(C)Cc2ccc(-c3cc4c(-c5cc(F)cc(NC(=O)c6ccc(C(C)(C)O)cc6F)c5C)ncnc4[nH]3)cc2)cc1N1CCC(=O)NC1=O` [Compound 17, 5-(2,4-Dioxotetrahydropyrimidin-1(2H)-yl)-N-(5-((4-(4-(5-fluoro-3-(2-fluoro-4-(2-hydroxypropan-2-yl)benzamido)-2-methylphenyl)-7H-pyrrolo[2,3-d]pyrimidin-6-yl)benzyl)(methyl)amino)pentyl)-6-methylnicotinamide], in experiment [1], the concentration at half-maximal activity (AC50) worked out at 3550 nM. In experiment [2], the “BTK degradation Amax” value was determined as 16.6% and the DC50 stood at 101 nM.

On to `Cc1c(NC(=O)c2ccc(C(C)(C)O)cc2F)cc(F)cc1-c1ncnc2[nH]c(-c3ccc(CN4CCN(C(=O)N5CCN(CCC#Cc6cccc(N7CCC(=O)NC7=O)c6)CC5)CC4)cc3)cc12` [Compound 03, N-(3-(6-(4-((4-(4-(4-(3-(2,4-dioxotetrahydropyrimidin-1(2H)-yl)phenyl)but-3-yn-1-yl)piperazine-1-carbonyl)piperazin-1-yl)methyl)phenyl)-7H-pyrrolo[2,3-d]pyrimidin-4-yl)-5-fluoro-2-methylphenyl)-2-fluoro-4-(2-hydroxypropan-2-yl)benzamide], for which the activity in experiment [1] was half-maximal at 257 nM (AC50). For the same molecule, in experiment [2], the “BTK degradation Amax” value worked out at 41.9% and it took 24.8 nM to reach half-maximal degradation (DC50).

For the molecule `Cc1c(NC(=O)c2ccc(C(C)(C)O)cc2F)cc(F)cc1-c1ncnc2[nH]c(-c3ccc(CN4CCOC(CN(C)CCOc5cccc(N6CCC(=O)NC6=O)c5)C4)cc3)cc12` (stereo not drawn) [Compound 15, N-(3-(6-(4-((2-(((2-(3-(2,4-Dioxotetrahydropyrimidin-1(2H)-yl)phenoxy)ethyl)(methyl)amino)methyl)morpholino)methyl)phenyl)-7H-pyrrolo[2,3-d]pyrimidin-4-yl)-5-fluoro-2-methylphenyl)-2-fluoro-4-(2-hydroxypropan-2-yl)benzamide], half-maximal activity in experiment [1] (AC50) was put at 4110 nM. Further, in experiment [2], the “BTK degradation Amax” value was determined as 28.8% and the half-maximal degradation concentration (DC50) turned out to be 21.7 nM.

`Cc1c(NC(=O)c2ccc(C(C)(C)O)cc2F)cc(F)cc1-c1ncnc2[nH]c(-c3ccc(CN4CCN(CCNC(=O)COc5ccc(N6CCC(=O)NC6=O)cc5)CC4)cc3)cc12` [Compound 26, N-(3-(6-(4-((4-(2-(2-(4-(2,4-Dioxotetrahydropyrimidin-1(2H)-yl)phenoxy)acetamido)ethyl)piperazin-1-yl)methyl)phenyl)-7H-pyrrolo[2,3-d]pyrimidin-4-yl)-5-fluoro-2-methylphenyl)-2-fluoro-4-(2-hydroxypropan-2-yl)benzamide] displayed an AC50 in experiment [1] of 3920 nM. Besides, in experiment [2], the “BTK degradation Amax” value turned out to be 10.6% and the DC50 is 11.2 nM.

Turning to `Cc1c(NC(=O)c2ccc(C(C)(C)O)cc2F)cc(F)cc1-c1ncnc2[nH]c(-c3ccc(CNCCCCCCn4cc(-c5cccc(N6CCC(=O)NC6=O)c5)nn4)cc3)cc12` [Compound 19, N-(3-(6-(4-(((6-(4-(3-(2,4-Dioxotetrahydropyrimidin-1(2H)-yl)phenyl)-1H-1,2,3-triazol-1-yl)hexyl)amino)methyl)phenyl)-7H-pyrrolo[2,3-d]pyrimidin-4-yl)-5-fluoro-2-methylphenyl)-2-fluoro-4-(2-hydroxypropan-2-yl)benzamide], the AC50 in experiment [1] was 104 nM. For the same molecule, in experiment [2], the “BTK degradation Amax” value is recorded as 48.2% and the DC50 is 229 nM.
